This is an account of results in publication PMC7796031, “Studies of Coumarin Derivatives for Constitutive Androstane Receptor (CAR) Activation” (Molecules, 2020).

Structures are written as SMILES.

The subject of assay [1] is db/db mice. Kind of assay: In vivo hypoglycemic effect in db/db mice (OGTT, fructosamine, insulin, HOMA-IR). Also noted: species or system mouse. Here is the method: Six-week old male C57/BL6 mice (n = 6) were acquired from the Animal Center of the College of Medicine, National Taiwan University (Taipei, Taiwan) and 6-week-old male db/db mice (BKS.Cg-Dock7m +/+ Leprdb/JNarl) (n = 12) were acquired from the National Laboratory Animal Center (Tainan, Taiwan). Experimental animals were allowed to acclimate to the controlled photoperiod (a cycle of 12-h light/12-h dark), humidity (40–60% relative humidity) and temperature (22 ± 2 °C) with ad libitum supply of standard chow diets and drinking water for one week prior to the experimental treatment in accordance with the Guide for the Care and Use of Laboratory Animals (Institute of Laboratory Animal Resources Commission on Life Sciences, 2011). Acclimated animals were randomly separated into three cohorts: control group (C57/BL6 mice treated with vehicle for two weeks, n = 6), db/db group (db/db mice treated with vehicle for two weeks, n = 6), and db/db+SP group (db/db mice treated with 100 mg/kg scoparone for two weeks, n = 6). (IACUC Approval NO.: 20140532; Duration: 2015.01.01–2015.12.31; Ethical Committee: National Taiwan University College of Medicine and College of Public Health Institutional Animal Care and Use Committee (IACUC).)
The control mice or diabetic mice with or without drugs treatment for 2 weeks received an oral glucose challenge (2 g/kg). Mice were under slight anesthesia by an intraperitoneal injection of pentobarbital (50 mg/kg) and blood samples (20–50 μL via orbital sinus at each time point) were collected following: 0, 15, 30, 60, 90, and 120 min after delivery of the glucose load. Blood glucose levels were determined using SURESTEP blood glucose meter (Lifescan). Glucose tolerance was determined and performed as the curve (AUC) and delta AUC (ΔAUC) using Prism 5 software (GraphPad).
To determine the amount of insulin and fructosamine after fasting overnight, blood samples (0.5–0.8 mL) of euthanasia animals were collected. After centrifugation, the serum was analyzed by insulin and fructosamine immunoassay kits according to the respective instructions of the manufacturer (Mercodia AB Inc., Uppsala, Sweden; Hospitex Diagnostics Lp, League City, TX, USA). The homeostasis model assessment of insulin resistance (HOMA-IR) index is calculated with the formula of the values of fasting glucose and insulin divided by 22.5 as previously described.

Assay [2] relates to FXR. Also noted: method as in PMID 21649640. Conditions: scoparone alone, up to 100 μM; cited from earlier work.
Assay [3] deals with nuclear CAR. Kind of assay: Protein expression of nuclear CAR (nuclear extraction, western blot). In kind it is cell-based, human. Conditions: Hep3B, treatment for 2 h. Here is the method: Figure 3 Image of immunofluorescence staining for CAR translocation in Hep3B cells after 6,7-diprenoxycoumarin (50) treatment (A) and scoparone treatment (C). Hep3B cells were treated with 50 (10 μM) for 2 h. The negative control group was pre-treated with 10 nM okadaic acid (OA). The blue and green fluorescence stands for signals of nuclei and CAR protein, respectively. The protein expression of nuclear CAR after 6,7-diprenoxycoumarin (50) treatment for 2 h (B).
Cells were harvest by centrifugation after trypsin-EDTA treatment. The ice-cold CER I (10 μL/1 × 10^6 cells) was added to the cell pellet following the manufacturer’s instruction. The tube was vigorously vortexed on the highest setting for 15 s to fully suspend the cell pellet, incubated on ice for 10 min, then ice-cold CER II was added to the tube and vortexed for 5 s on the highest setting. After incubating in ice for 1 min, tube was vortexed for 5 s on the highest setting then subjected to centrifuge for 5 min at 16,000× g. The supernatant (cytoplasmic fraction) was […] to a clean pre-chilled tube and the nuclear fraction (pellet) was re-suspended in ice-cold NER. […]
Protein concentration of each sample was determined using a BCA Protein Assay Kit (Pirece®, Thermo Scientific). […] The emitted fluorescence from the membrane was caught on a LAS-4000 biomolecule imager (FUJI.).

The target in assay [4] is T1, EGFR (Homo sapiens, UniProt P00533).
T1 construct: 6,7-Diprenoxycoumarin (50) antagonized EGF-induced phosphorylation EGFR in Hep3B; endogenous in cells; host or cells: Hep3B
T1 sequence (P00533 25-1210): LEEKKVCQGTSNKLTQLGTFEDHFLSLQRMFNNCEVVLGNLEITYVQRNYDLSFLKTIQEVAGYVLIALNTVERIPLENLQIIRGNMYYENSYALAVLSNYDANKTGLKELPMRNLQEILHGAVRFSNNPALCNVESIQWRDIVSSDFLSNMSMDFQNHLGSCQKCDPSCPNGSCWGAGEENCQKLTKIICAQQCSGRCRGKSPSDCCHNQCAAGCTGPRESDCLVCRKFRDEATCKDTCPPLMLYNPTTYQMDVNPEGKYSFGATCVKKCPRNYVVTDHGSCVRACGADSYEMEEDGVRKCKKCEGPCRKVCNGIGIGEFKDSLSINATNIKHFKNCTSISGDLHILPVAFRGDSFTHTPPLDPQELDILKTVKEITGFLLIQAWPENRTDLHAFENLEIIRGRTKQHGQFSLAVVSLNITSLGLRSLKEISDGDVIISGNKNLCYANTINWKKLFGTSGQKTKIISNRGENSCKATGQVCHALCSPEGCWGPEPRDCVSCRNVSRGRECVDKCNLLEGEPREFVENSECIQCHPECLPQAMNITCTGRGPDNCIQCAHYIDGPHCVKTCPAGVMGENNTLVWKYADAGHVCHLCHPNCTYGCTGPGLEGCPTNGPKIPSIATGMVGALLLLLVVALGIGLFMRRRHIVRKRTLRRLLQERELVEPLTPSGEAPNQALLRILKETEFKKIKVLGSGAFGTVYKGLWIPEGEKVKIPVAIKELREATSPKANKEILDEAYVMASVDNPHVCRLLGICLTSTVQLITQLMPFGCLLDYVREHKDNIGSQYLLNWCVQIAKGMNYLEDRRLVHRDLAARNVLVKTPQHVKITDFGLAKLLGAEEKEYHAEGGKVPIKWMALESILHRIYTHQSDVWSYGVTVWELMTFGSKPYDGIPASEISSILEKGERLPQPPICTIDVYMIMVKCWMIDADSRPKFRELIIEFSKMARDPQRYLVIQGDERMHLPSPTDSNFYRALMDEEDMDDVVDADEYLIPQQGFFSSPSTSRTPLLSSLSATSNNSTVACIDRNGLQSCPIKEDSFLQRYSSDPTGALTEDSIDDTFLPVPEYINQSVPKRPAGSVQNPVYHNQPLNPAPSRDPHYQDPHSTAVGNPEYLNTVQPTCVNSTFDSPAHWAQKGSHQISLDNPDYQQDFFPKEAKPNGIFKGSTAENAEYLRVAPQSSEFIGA
Description: EGF-induced phosphorylation of EGFR in Hep3B (western blot). The class given is cell-based. As to conditions: 10 μM, 15 min. Here is the method:
Figure 4 6,7-Diprenoxycoumarin (50) antagonized EGF-induced phosphorylation EGFR in Hep3B. The Hep3B cells (1 × 10^6) were treated without (Ctrl) or with EGF in the absent 50 or present (EGF + 50) of 10 μM 50 for 15 min and phosphorylation status of EGFR was measured.
1 × 10^6 cells were seeded in a 10 cm plate, incubated at 37 °C for overnight and treated with various concentrations of compounds for the indicated times. After incubation, the culture medium was removed and washed twice with 2 mL ice-cold 1× PBS. Three hundred μL of protein lysis buffer (150 mM NaCl, 50 mM Tris-HCl (pH 7.4), 1% SDS, 1% Triton X-100, 1 mM PMSF) was added into each plate, scraped with a rubber policeman, collected into a premarked microtube and the incubated in ice for 1 h, sonicated by Ultrasonic Cell Disruptor for three time at 5 s each. The cell lysated was cleared by centrifugation at 12,000× g for 15 min at 4 °C. Supernatants were transferred into a fresh marked microtube and stored at −20 °C for future use.
Protein concentration of each sample was determined using a BCA Protein Assay Kit (Pirece®, Thermo Scientific). Different percentages of SDS-PAGE gels were prepared according to the molecular size of proteins of interest. […] The emitted fluorescence from the membrane was caught on a LAS-4000 biomolecule imager (FUJI.).

The mark [5] stands for this setting: db/db mice, 100 mg/kg P.O., two weeks.

For `COc1cc2ccc(=O)oc2cc1OC` [Compound 39, scoparone], in assay [1] (setting [5]), the HOMA-IR entry is listed as “did not change”, the insulin level result is “did not change”, the level of fructosamine result is listed as “decreased” and the “oral glucose tolerance test (OGTT)” value is given as “significant improvement”. Further, the FXR activation entry in assay [2] is “no effect”.
For `CC(C)=CCOc1cc2ccc(=O)oc2cc1OCC=C(C)C` [Compound 50, 6,7-diprenoxycoumarin], in assay [1] (even by intraperitoneal injection), the “in vivo efficacy (blood sugar lowering)” value is reported as “didn’t show any in vivo efficacy”. For the same molecule, the “protein expression of nuclear CAR” value in assay [3] was “increased”. Further, the “EGF-induced phosphorylation of EGFR” value in assay [4] is given as “reduce”.
